Reference: article PMC4287394 (Clinical cancer research : an official journal of the …, 2014)
Values joined by “and” are separate entries in the source; they are usually repeats but may differ in a detail not shown here. Equal values may be shown once.

Assay: Phase I safety: adverse events, DLT, MTD, RP2D
Assay type: in vivo, human
Settings: for Patients with DLT (grade 3 maculopapular rash): 21/28 schedule
[1] = 15mg 21/28, 4 patients, all grades
[2] = 30mg 21/28, 3 patients, all grades
[3] = 45mg 21/28, 4 patients, all grades
[4] = 60mg 21/28, 4 patients, all grades
[5] = 80mg 21/28, 3 patients, all grades
[6] = 100mg 21/28, 5 patients, all grades
[7] = 130mg 21/28, 3 patients, all grades
[8] = 130mg 21/28, 3 patients, grade ≥3
[9] = 180mg 21/28, 3 patients, all grades
[10] = 245mg 21/28, 3 patients, all grades
[11] = 330mg 21/28, 7 patients, all grades
[12] = 330mg 21/28, 7 patients, grade ≥3
[13] = 330mg 28/28, 10 patients, all grades
[14] = 330mg 28/28, 10 patients, grade ≥3
[15] = 330mg once-daily 28/28, 10 patients
[16] = 340mg 28/28, 7 patients, all grades
[17] = 340mg 28/28, 7 patients, grade ≥3
[18] = 400mg 28/28, 1 patient, all grades
[19] = 450mg 21/28, 3 patients, all grades
[20] = 450mg 21/28, 3 patients, grade ≥3
[21] = all dose levels 21 or 28/28, 60 patients, all grades
[22] = all dose levels 21 or 28/28, 60 patients, grade ≥3

CS(=O)(=O)N1CCN(Cc2cc3nc(-c4cccc5[nH]ncc45)nc(N4CCOCC4)c3s2)CC1 [pictilisib, 2-(1H-indazol-4-yl)-6-(4-methanesulfonyl-piperazin-1-ylmethyl)-4-morpholin-4-yl-t hieno[3,2-d]pyrimidine]
9: Nausea, no. of patients with treatment-related AE [13] | Any treatment-related adverse event, no. of patients [22]
1: Dysgeusia, no. of patients with treatment-related AE [1] | Nausea, no. of patients with treatment-related AE [1] | Any treatment-related adverse event, no. of patients [2] | Dysgeusia, no. of patients with treatment-related AE [3] | Diarrhea, no. of patients with treatment-related AE [4] | Diarrhea, no. of patients with treatment-related AE [5] | Dysgeusia, no. of patients with treatment-related AE [5] | Nausea, no. of patients with treatment-related AE [5] | Vomiting, no. of patients with treatment-related AE [5] | Diarrhea, no. of patients with treatment-related AE [6] | Fatigue, no. of patients with treatment-related AE [6] | Patients with grade 4 hyperglycemia (130mg) | Any treatment-related adverse event, no. of patients [7] | Any treatment-related adverse event, no. of patients [8] | Decreased appetite, no. of patients with treatment-related AE [9] | Diarrhea, no. of patients with treatment-related AE [9] | Dysgeusia, no. of patients with treatment-related AE [9] | Fatigue, no. of patients with treatment-related AE [9] | Rash (all rash preferred terms), no. of patients with treatment-related AE [9] | Decreased appetite, no. of patients with treatment-related AE [10] | Fatigue, no. of patients with treatment-related AE [10] | Nausea, no. of patients with treatment-related AE [10] | Xeroderma, no. of patients with treatment-related AE [10] | Dysgeusia, no. of patients with treatment-related AE [11] | Rash (all rash preferred terms), no. of patients with treatment-related AE [12] | Diarrhea, no. of patients with treatment-related AE [14] | Xeroderma, no. of patients with treatment-related AE [14] | Patients with grade 3 pneumonitis (340mg) | Diarrhea, no. of patients with treatment-related AE [16] | Rash (all rash preferred terms), no. of patients with treatment-related AE [16] | Any treatment-related adverse event, no. of patients [18] | Fatigue, no. of patients with treatment-related AE [18] | Nausea, no. of patients with treatment-related AE [18] | Rash (all rash preferred terms), no. of patients with treatment-related AE [18] | Decreased appetite, no. of patients with treatment-related AE [19] | Dysgeusia, no. of patients with treatment-related AE [19] | Xeroderma, no. of patients with treatment-related AE [19] | Diarrhea, no. of patients with treatment-related AE [22] | Xeroderma, no. of patients with treatment-related AE [22] | Patients with grade ≥3 hyperglycemia (whole study)
7: Any treatment-related adverse event, no. of patients [11] | Diarrhea, no. of patients with treatment-related AE [13]
4: Fatigue, no. of patients with treatment-related AE [11] | Nausea, no. of patients with treatment-related AE [11] | Rash (all rash preferred terms), no. of patients with treatment-related AE [11] | Rash (all rash preferred terms), no. of patients with treatment-related AE [13] | Xeroderma, no. of patients with treatment-related AE [13] | Nausea, no. of patients with treatment-related AE [16] | Vomiting, no. of patients with treatment-related AE [16]
2 of 3 and 2: Patients with DLT (grade 3 maculopapular rash) (450mg once-daily, 3 patients)
8: Xeroderma, no. of patients with treatment-related AE [21]
15: Vomiting, no. of patients with treatment-related AE [21]
330 mg: Recommended Phase II dose (RP2D) (continuous once-daily oral dosing)
2: Any treatment-related adverse event, no. of patients [1] | Any treatment-related adverse event, no. of patients [3] | Diarrhea, no. of patients with treatment-related AE [3] | Any treatment-related adverse event, no. of patients [4] | Nausea, no. of patients with treatment-related AE [4] | Vomiting, no. of patients with treatment-related AE [4] | Fatigue, no. of patients with treatment-related AE [5] | Any treatment-related adverse event, no. of patients [9] | Diarrhea, no. of patients with treatment-related AE [10] | Decreased appetite, no. of patients with treatment-related AE [11] | Xeroderma, no. of patients with treatment-related AE [11] | Any treatment-related adverse event, no. of patients [12] | Any treatment-related adverse event, no. of patients [14] | Rash (all rash preferred terms), no. of patients with treatment-related AE [14] | Patients with grade 1 or 2 rash [15] | Patients with grade 3 rash (after the DLT-defining window) [15] | Dysgeusia, no. of patients with treatment-related AE [16] | Any treatment-related adverse event, no. of patients [17] | Fatigue, no. of patients with treatment-related AE [19] | Nausea, no. of patients with treatment-related AE [19] | Vomiting, no. of patients with treatment-related AE [19] | Any treatment-related adverse event, no. of patients [20] | Rash (all rash preferred terms), no. of patients with treatment-related AE [20]
approximately 2 weeks: Time of presentation of DLT rash after commencement of daily dosing (450mg once-daily 21/28)
1 of 7 and 1: Patients with DLT (grade 3 maculopapular rash) (330mg once-daily, 7 patients)
28: Nausea, no. of patients with treatment-related AE [21]
14: Decreased appetite, no. of patients with treatment-related AE [21] | Rash (all rash preferred terms), no. of patients with treatment-related AE [21]
well-tolerated: Tolerability (up to 330mg (21/28 schedule))
3: Any treatment-related adverse event, no. of patients [5] | Any treatment-related adverse event, no. of patients [6] | Nausea, no. of patients with treatment-related AE [6] | Any treatment-related adverse event, no. of patients [10] | Diarrhea, no. of patients with treatment-related AE [11] | Vomiting, no. of patients with treatment-related AE [11] | Vomiting, no. of patients with treatment-related AE [13] | Decreased appetite, no. of patients with treatment-related AE [16] | Fatigue, no. of patients with treatment-related AE [16] | Any treatment-related adverse event, no. of patients [19] | Rash (all rash preferred terms), no. of patients with treatment-related AE [19]
no treatment-related deaths: Treatment-related deaths (all 60 patients)
70-80%: Body surface area covered by DLT maculopapular rash (450mg once-daily 21/28, 2 patients)
2 weeks: Time to spontaneous resolution of DLT rash after treatment discontinuation (450mg once-daily 21/28)
0: Decreased appetite, no. of patients with treatment-related AE [1] | Diarrhea, no. of patients with treatment-related AE [1] | Fatigue, no. of patients with treatment-related AE [1] | Rash (all rash preferred terms), no. of patients with treatment-related AE [1] | Vomiting, no. of patients with treatment-related AE [1] | Xeroderma, no. of patients with treatment-related AE [1] | Decreased appetite, no. of patients with treatment-related AE [2] | Diarrhea, no. of patients with treatment-related AE [2] | Dysgeusia, no. of patients with treatment-related AE [2] | Fatigue, no. of patients with treatment-related AE [2] | Nausea, no. of patients with treatment-related AE [2] | Rash (all rash preferred terms), no. of patients with treatment-related AE [2] | Vomiting, no. of patients with treatment-related AE [2] | Xeroderma, no. of patients with treatment-related AE [2] | Decreased appetite, no. of patients with treatment-related AE [3] | Fatigue, no. of patients with treatment-related AE [3] | Nausea, no. of patients with treatment-related AE [3] | Rash (all rash preferred terms), no. of patients with treatment-related AE [3] | Vomiting, no. of patients with treatment-related AE [3] | Xeroderma, no. of patients with treatment-related AE [3] | Decreased appetite, no. of patients with treatment-related AE [4] | Dysgeusia, no. of patients with treatment-related AE [4] | Fatigue, no. of patients with treatment-related AE [4] | Rash (all rash preferred terms), no. of patients with treatment-related AE [4] | Xeroderma, no. of patients with treatment-related AE [4] | Decreased appetite, no. of patients with treatment-related AE [5] | Rash (all rash preferred terms), no. of patients with treatment-related AE [5] | Xeroderma, no. of patients with treatment-related AE [5] | Decreased appetite, no. of patients with treatment-related AE [6] | Dysgeusia, no. of patients with treatment-related AE [6] | Rash (all rash preferred terms), no. of patients with treatment-related AE [6] | Vomiting, no. of patients with treatment-related AE [6] | Xeroderma, no. of patients with treatment-related AE [6] | Decreased appetite, no. of patients with treatment-related AE [7] | Diarrhea, no. of patients with treatment-related AE [7] | Dysgeusia, no. of patients with treatment-related AE [7] | Fatigue, no. of patients with treatment-related AE [7] | Nausea, no. of patients with treatment-related AE [7] | Rash (all rash preferred terms), no. of patients with treatment-related AE [7] | Vomiting, no. of patients with treatment-related AE [7] | Xeroderma, no. of patients with treatment-related AE [7] | Decreased appetite, no. of patients with treatment-related AE [8] | Diarrhea, no. of patients with treatment-related AE [8] | Dysgeusia, no. of patients with treatment-related AE [8] | Fatigue, no. of patients with treatment-related AE [8] | Nausea, no. of patients with treatment-related AE [8] | Rash (all rash preferred terms), no. of patients with treatment-related AE [8] | Vomiting, no. of patients with treatment-related AE [8] | Xeroderma, no. of patients with treatment-related AE [8] | Nausea, no. of patients with treatment-related AE [9] | Vomiting, no. of patients with treatment-related AE [9] | Xeroderma, no. of patients with treatment-related AE [9] | Dysgeusia, no. of patients with treatment-related AE [10] | Rash (all rash preferred terms), no. of patients with treatment-related AE [10] | Vomiting, no. of patients with treatment-related AE [10] | Decreased appetite, no. of patients with treatment-related AE [12] | Diarrhea, no. of patients with treatment-related AE [12] | Dysgeusia, no. of patients with treatment-related AE [12] | Fatigue, no. of patients with treatment-related AE [12] | Nausea, no. of patients with treatment-related AE [12] | Vomiting, no. of patients with treatment-related AE [12] | Xeroderma, no. of patients with treatment-related AE [12] | Decreased appetite, no. of patients with treatment-related AE [14] | Dysgeusia, no. of patients with treatment-related AE [14] | Fatigue, no. of patients with treatment-related AE [14] | Nausea, no. of patients with treatment-related AE [14] | Vomiting, no. of patients with treatment-related AE [14] | Xeroderma, no. of patients with treatment-related AE [16] | Decreased appetite, no. of patients with treatment-related AE [17] | Diarrhea, no. of patients with treatment-related AE [17] | Dysgeusia, no. of patients with treatment-related AE [17] | Fatigue, no. of patients with treatment-related AE [17] | Nausea, no. of patients with treatment-related AE [17] | Rash (all rash preferred terms), no. of patients with treatment-related AE [17] | Vomiting, no. of patients with treatment-related AE [17] | Xeroderma, no. of patients with treatment-related AE [17] | Decreased appetite, no. of patients with treatment-related AE [18] | Diarrhea, no. of patients with treatment-related AE [18] | Dysgeusia, no. of patients with treatment-related AE [18] | Vomiting, no. of patients with treatment-related AE [18] | Xeroderma, no. of patients with treatment-related AE [18] | Diarrhea, no. of patients with treatment-related AE [19] | Decreased appetite, no. of patients with treatment-related AE [20] | Diarrhea, no. of patients with treatment-related AE [20] | Dysgeusia, no. of patients with treatment-related AE [20] | Fatigue, no. of patients with treatment-related AE [20] | Nausea, no. of patients with treatment-related AE [20] | Vomiting, no. of patients with treatment-related AE [20] | Xeroderma, no. of patients with treatment-related AE [20] | Decreased appetite, no. of patients with treatment-related AE [22] | Dysgeusia, no. of patients with treatment-related AE [22] | Fatigue, no. of patients with treatment-related AE [22] | Nausea, no. of patients with treatment-related AE [22] | Vomiting, no. of patients with treatment-related AE [22]
5: Dysgeusia, no. of patients with treatment-related AE [13] | Rash (all rash preferred terms), no. of patients with treatment-related AE [22]
10: Any treatment-related adverse event, no. of patients [13]
6: Decreased appetite, no. of patients with treatment-related AE [13] | Fatigue, no. of patients with treatment-related AE [13] | Any treatment-related adverse event, no. of patients [16]
21: Fatigue, no. of patients with treatment-related AE [21]
no DLT was observed: DLT on continuous schedule (28/28 schedule (330mg, 340mg, 400mg))
